Data published in patent publication US20180140655A1, “AGENT CONTAINING IMIDAZOLE DIPEPTIDE” (THE UNIVERSITY OF TOKYO, priority 2014, published 2018).

Key:
[1] = cited from earlier work
[2] = Stability at ordinary temperature, under cooking conditions and in solution; type: physicochemical; details: for stability under cooking conditions: cooking conditions of 180° C. or lower
From the text: The agent, pharmaceutical composition, or nutritional composition of the present invention can be produced by using various known techniques. The step of adjusting concentration of the active ingredient to a predetermined concentration may be performed in various stages of the manufacturing process. Those skilled in the art can appropriately design the steps for producing the agent of the present invention in consideration of solubility, stability, volatility, etc. of the active ingredient. […] It was also confirmed that they can be stably stored over at least 2 years and 9 months in a state of solution.

[3] = test system: transgenic mice (Alzheimer disease model mice); test: Blood insulin concentration in Alzheimer disease model mice; type: in vivo, mouse; details: mice starved overnight; high fat diet-induced Alzheimer disease; p<0.05
Procedure: (§1) High fat diet (HFD) was given to transgenic mice (Alzheimer disease model mice) to induce cerebral hypofunction. Carnosine (L-histidine-β-alanine) was administered to the mice, and influence of carnosine was evaluated.
Blood was collected from mice starved overnight, and blood insulin concentration was determined with a kit (Morinaga).

[4] = test system: transgenic mice (Alzheimer disease model mice); test: Blood cytokines in high fat diet Alzheimer disease model mice; type: in vivo, mouse; details: carnosine-containing diet group
Procedure: as §1
(§2) Suppression of cerebral inflammation in the carnosine administration group was also shown by the results of MRI test (FIG. 8-2, red portions). The results of the microarray analysis indicated increase of expressions of GABA transporters such as 7Slc6a12 and slc6a13 observed in the Alzheimer model was suppressed in the carnosine administration group (FIG. 8-3).

[5] = test system: transgenic mice (Alzheimer disease model mice); test: Intracerebral inflammatory reaction by MRI in Alzheimer disease model mice; type: in vivo, mouse; details: carnosine administration group, high fat diet transgenic mice
Procedure: as §1, §2

GABA transporters = test: Microarray analysis of GABA transporter genes in Alzheimer disease model mice; type: in vivo, mouse; details: carnosine administration group vs Alzheimer model
Procedure: as §1, §2

stability under cooking conditions [2] | stability at an ordinary temperature [2] | Structure (SMILES) | water solubility (in words) [1] | increase of the blood insulin concentration [3] | blood cytokines [4] | cerebral inflammation (MRI test) [5] | increase of expression of GABA transporter 7Slc6a12 (GABA transporters) | increase of expression of GABA transporter slc6a13 (GABA transporters) | water solubility ([1]; at 25° C.) [g/3.1 ml]
sufficiently stable | sufficiently stable | Cn1cncc1C[C@H](NC(=O)CCN)C(=O)O [anserine, (2S)-2-[(3-amino-1-oxopropyl)amino]-3-(3-methyl-4-imidazolyl)ppropanoic acid] | water-soluble |  |  |  |  |  | 
sufficiently stable | sufficiently stable | NCCC(=O)N[C@@H](Cc1cnc[nH]1)C(=O)O [carnosine] | water-soluble | suppressed | decreased | Suppression | suppressed | suppressed | 1
